Assays:
mouse DRG neurons = assay: Patch clamp rheobase of DRG neurons: IBS-D biopsy supernatant-induced hyperexcitability; format: cell-based; details: I-343 10 μM, Dy4 30 μM, PD98059 50 μM
Experimental: An investigation as whether proteases from mucosal biopsies of IBS patients cause a persistent hyperexcitability of nociceptors was conducted by a mechanism that entails endosomal signaling of PAR2. Biopsies of colonic mucosa from patients with diarrhea-predominant IBS (IBS-D) or healthy control (HC) subjects were placed in culture medium (24 h, 37° C.). Mouse DRG neurons were then exposed to biopsy supernatants (30 min, 37° C.) and washed. Rheobase was measured 30 min after washing to assess persistent hyperexcitability. Supernatants of biopsies from IBS-D patients caused a persistent decrease in rheobase, consistent with hyperexcitability, when compared to supernatants from HC subjects (rheobase at 30 min: HC, 78.33±4.41 pA, 12 neurons, supernatant from 4 HC; IBS-D, 54.55±4.74 pA, 11 neurons, supernatant from 4 IBS-D; P<0.05; ANOVA, Tukey's multiple comparisons test) (FIG. 6A, B). I-343 (10 μM), Dy4 (dynamin inhibitor, 30 μM) and PD98059 (MEK1 inhibitor, 50 μM) abolished IBS-D-induced hyperexcitability of nociceptors (FIG. 6A-D).
The Queen's University Human Ethics Committee approved human studies. All subjects gave informed consent. Endoscopic biopsies were obtained from the descending colon of 13 adult IBS-D patients (12 female) diagnosed using ROME III criteria for diarrhea predominant IBS and of 12 health controls. All IBS patients had symptoms greater than 1 year and most were greater than 5 years. Celiac disease was excluded by blood test and patients over 40 years with daily diarrhea were biopsied at the time of colonoscopy to exclude microscopic colitis. […] Biopsies (8 samples per patient) were incubated in 250 μl of RPMI medium containing 10% fetal calf serum, penicillin/streptomycin and gentamicin/amphotericin B (95% O2/5% […], 24 h, 37° C.). Supernatants were stored at −80° C. Supernatants from 4-6 patients were pooled and studied in individual experiments.
DRG innervating the colon (T9-T13) were collected from C57BL/6 mice. Ganglia were digested by incubation in collagenase IV (1 mg/ml, Worthington) and dispase (4 mg/ml, Roche) (10 min, 37° C.). DRG were triturated with a fire-polished Pasteur pipette, and further digested (5 min, 37° C.). Neurons were washed, plated onto laminin- (0.017 mg/ml) and poly-D-lysine- (2 mg/ml) coated glass coverslips, and were maintained in F12 medium containing 10% fetal calf serum, penicillin and streptomycin (95% air, 5% CO2, 16 h, 37° C.) until retrieval for electrophysiological studies.
Small-diameter (<30 pF capacitance) neurons were studied because they display characteristics of nociceptors (Valdez-Morales E. E. et al., Am J Gastroenterol 2013, 108(10): 1634-1643). Changes in excitability were quantified by measuring rheobase. Whole-cell perforated patch-clamp recordings were made using Amphotericin B (240 μg/ml, Sigma Aldrich) in current clamp mode at room temperature. The recording chamber was perfused with external solution at 2 ml/min. Recordings were made using Multiclamp 700B or Axopatch 200B amplifiers, digitized by Digidata 1440A or 1322A, and processed using pClamp 10.1 software (Molecular Devices). Solutions had the composition (mM): pipette—K-gluconate 110, KC130, HEPES 10, MgCl2 1, CaCl2 2; pH 7.25 with 1 M KOH; external—NaCl 140, KCl 5 HEPES 10, glucose 10, MgCl2 1, CaCl2 2; pH to 7.3-7.4 with 3 M NaOH. […] Neurons were also preincubated with trypsin (50 nM, 10 min), NE (390 nM, 30 min), CS (500 nM, 60 min), or vehicle (37° C.), and washed. Rheobase was measured at T 0 or T 30 min after washing. To investigate mechanisms of protease-evoked effects, neurons were incubated with I-343 (100 nM, 300 nM, 10 μM, 30 min preincubation), SCH79797 (1 μM, 10 min), Dy4 (30 μM, 30 min), PS2 (15 μM, 30 min), PD98059 (50 μM, 30 min), GF109203X (10 μM, 30 min), or vehicle (preincubation and inclusion throughout). In experiments using the tripartite antagonist, neurons were preincubated with Compound 10 (30 μM, 60 min, 37° C.) or vehicle and washed. […]

colonic afferent neurons = assay: Colonic afferent recordings, CVH mice (28 d post-TNBS); parameters: species or system mouse
Experimental: Transient colitis in mice induces hypersensitivity of colonic afferent neurons that persists after inflammation is resolved (Azpiroz F., et al., Neurogastroenterol Motil. 2007, 19(1 Suppl): 62-88). This chronic visceral hypersensitivity (CVH) may mimic post-infectious/inflammatory IBS. To determine whether proteases can further amplify CVH, mice were treated with trinitrobenzene sulphonic acid (TNBS, enema) to induce colitis. At 28 d post-TNBS, when inflammation is undetectable, mechanical stimulation of the colon induced a larger firing rate in CVH mice than in HC mice, consistent with chronic hyperexcitability (FIG. 21A-D). […] Thus, proteases can still amplify the excitability of colonic nociceptors even when they are already sensitized as a result of prior inflammation. The colon and rectum (5-6 cm) was removed from C57BL/6 mice. Afferent recordings were made from splanchnic nerves as described (Hughes, P. A. et al., Gut 2009, 58(10): 1333-134; Brierley, S. M. et al., Gastroenterology 2004, 127(1): 166-178). Briefly, the intestine was opened and pinned flat, mucosal side up, in an organ bath. […] Action potentials were analyzed using the Spike 2 […] function and discriminated as single units on the basis of distinguishable waveform, amplitude and duration. […]

Compound	IBS-D-induced hyperexcitability of nociceptors (mouse DRG neurons)	rheobase of neurons exposed to HC supernatant (mouse DRG neurons)	further amplification of responses compared to basal, CVH mice (colonic afferent neurons) [%]
Cc1nc(C(=O)N2CCN(C(=O)c3cn4nc(-c5ccc(F)cc5)cc(C(C)(C)C)c4n3)C(C)(C)C2)n[nH]1 [Compound I-343, (8-(tert-butyl)-6-(4-fluorophenyl)imidazo[1,2-b]pyridazin-2-yl)(2,2-dimethyl-4-(5-methyl-1H-1,2,4-triazole-3-carbonyl)piperazin-1-yl)methanone]	abolished	no effect	–
O=C(N/N=C/c1cc(O)c(O)cc1O)c1cc2ccccc2cc1O [Dy4]	abolished	non-significant decrease	–
NE: protease (elastase) activating PAR2 by biased mechanisms	–	–	30.6±9.0
trypsin	–	–	16.4±7.9
